Assays:
[1] = system: senescent fibroblasts (passage 37); test: Soft agar assay for abnormal (cancer-like) proliferation; format: cell-based, human; conditions: 0.5 μM, 4 weeks; 293T cells formed colonies
Description: In addition, to confirm whether the cells proliferated by the culture proliferate abnormally, for example, proliferate like cancer cells, a soft agar assay was carried out. First, the DMEM medium containing 10% FBS was mixed with a 1.6% agar medium at a ratio of 1:1, so as to prepare a medium containing 0.8% agar formulation to coat the bottom of each well of a 6-well plate. […] As a control group, a 293T cell line (ATCC® CRL-11268™) from human embryonic kidney was used. […] The same procedure applies similarly to the remaining images b, c, and d. In FIG. 3, HDF M11 p37 refers to a human dermal fibroblast M11 strain, which is a sub-cultured fibroblast (passage 37). In FIG. 3, KU-60019-KU-60019 refers to a process of continuously adding KU-60019 to a medium and culturing for 28 days; KU-60019-DMSO refers to a process of adding KU-60019 to a medium and culturing for 14 days, removing KU-60019, and then, culturing the cells in the absence of KU-60019 for another 14 days; DMSO-DMSO refers to a condition where KU-60019 is not added at all and the cells cultured for 28 days. The 293T cells were cultured under the same condition as DMSO-DMSO, and then, applied to the soft agar assay.

[2] = system: senescent fibroblasts (passage 37); test: Cell proliferation and formation of cell colonies (crystal violet staining); format: cell-based, human; conditions: among 0.1, 0.5 and 2 μM
Description: A human fibroblast cell line was inoculated into a Dulbecco's Modified Eagle's medium (DMEM) containing 10% fetal bovine serum (FBS), 100 units/ml of penicillin, and 100 μg/ml of streptomycin (wherein these two antibiotics were purchased from Gibro-BRL, Grand Island, N.Y.), and then, cultured in a 5% CO2 incubator at a temperature of 37° C. The fibroblast cell line (i.e., M11 strain) was a cell line derived from the foreskin of a child. When the cells were grown to about 85% confluency in a plate, the cells were subjected to subculture. The early subculture was carried out at a split ratio of 1:4, and the late subculture was carried out at a split ratio of 1:2. When the cell doubling time was 14 days, the cells were considered to be senescent fibroblasts (passages 35 to 37).
To determine the optimal concentration upon the treatment with an ATM-kinase inhibitor KU-60019 (SELLECKCHEM, S1570, salt), the senescent fibroblasts (passage 37) were inoculated into each well of a 6-well plate at a concentration of 2,000 cells/well, and then, KU-60019 was added to each well of the 6-well plate ([…]). In addition, as a negative control group, the cells were cultured under the same conditions as described above, except that a medium used herein contained a dimethyl sulfoxide (DMSO) (0.05 (v/v) %) medium. […]

C57BL/6J mice = test: Wound healing assay (full-thickness punch-biopsy wounds); format: in vivo, mouse; conditions: for closure difference between KU-60019-treated and DMSO-treated wounds: day 7; for mean wound closure: day 7, topical 5 μM in 30% Pluronic gel daily
Description: To further test whether ATMi can promote cutaneous wounding healing in young (3 months old) and old (19 months old) male mice (C57BL/6J mice), four full-thickness punch-biopsy wounds (8 mm in diameter) were created on the dorsal skin of mouse (5 mice/experimental group), drug at a concentration of 5 μM KU-60019 in 30% Pluronic gel (Pluronic F-127 Sigma, P2443-1 KG) 0.5 mL was applied to wounds every day, and then covered the wounds with Telfa sponges (Kendall Health Care, Mansfield, Mass., USA). All animal studies were reviewed and approved by the […] Animal Care and Use Committee of SKKU School of Medicine (SUSM). SUSM is an Association for Assessment and Accreditation of Laboratory Animal Care international accredited facility and abides by the Institute for Laboratory Animal Research guide. Wounds were photographed for 10 days. Immunohistochemistry analyses were performed on 5 μm paraffin embedded sections as described previously (Lin et. al., 2004. Developmental Biology 270, 474-486). Primary antibodies used for immunohistochemistry were mouse anti-α-smooth muscle actin (Sigma, F3777-2ML, 1:500), and mouse anti-PCNA (Santa Cruz Biotechnology, SC-56, 1:500). Secondary antibodies used for immunohistochemistry were EnVision™ Detection System (DAKO, K5007). Masson-Trichrome staining was performed according to the manufacturer's instructions (Polysciences Inc., Warrington Pa., USA).
To further test whether KU-60019 can promote cutaneous wounding healing in young (3 months old) and old (19 months old) mice, we created full-thickness punch-biopsy wounds 8 mm in diameter on the dorsal skin of 10 mice (5 mice/each group), applied to the wounds at a concentration of 5 μM KU-60019 in 30% Pluronic gel (Pluronic F-127 Sigma, P2443-1 KG), and then covered the wounds with Telfa sponges (Kendall Health Care, Mansfield, Mass., USA). Pluronic F-127 is a hydrogel widely used in pharmaceuticals as a drug delivery vehicle for a variety of soluble mediators, including antibodies, cytokines, and growth factors. […] Only 13.5% closure difference was shown between KU-60019-treated and DMSO-treated wounds. […] 20% closure difference was shown between KU-60019-treated and DMSO-treated wounds. […] KU-60019-treated wounds are capable of complete and efficient closure.

## C[C@@H]1CN(CC(=O)Nc2ccc3c(c2)Cc2cccc(-c4cc(=O)cc(N5CCOCC5)o4)c2S3)C[C@H](C)O1 [KU-60019, 2-((2S,6R)-2,6-dimethylmorpholino)-N-(5-(6-morpholino-4-oxo-4H-pyran-2-yl)-9H-thioxanthen-2-yl)acetamide]
[1]
  colony formation in soft agar: colonies were not formed
[2]
  most effective concentration selected: 0.5 µM
C57BL/6J mice; old mouse (19 months old)
  closure difference between KU-60019-treated and DMSO-treated wounds: 20%
C57BL/6J mice; old mouse (19 months old), control 49.4%
  mean wound closure: 69.4%
C57BL/6J mice; young mouse (3 months old)
  closure difference between KU-60019-treated and DMSO-treated wounds: 13.5%
C57BL/6J mice; young mouse (3 months old), control 74.1%
  mean wound closure: 87.6%
